# Columns and labels:
# solubility in water = type: physicochemical; conditions: glassy solid
# Experimental: A 15% excess of the bis(2-methoxyethylamide) of EDTA produced by the procedure described in Example XI (1.1 g, 0.0026 mol) was dissolved in water (10 ml) and MnCO3 (0.27 g, 0.0023 mol) was added. Upon warming for 30 minutes, the solution became homogeneous. The solution was taken to dryness under reduced pressure.
# [1] = T1 and T2 relaxivity, RADX (10 megahertz) NMR analyzer, 37° C.; type: physicochemical
# Experimental: T1 and T2 relaxivity curves of the complex of Example II were obtained using a RADX (10 megahertz) NMR analyzer. The RADX analyzer was thermally stabilized at 37° C. before performing any T1 or T2 measurements. Overall range tuning and mid-range calibration were performed on a 37° C. warmed T1 standard at the beginning of the experiment, according to manufacturer's instructions. Subsequent to calibration, T1 standards were tested to verify calibration and linearity.
# Ten millimolar solutions of the complex were prepared in sterile water for injection ("SWFI") and in 4% human serum albumin ("HSA")/0.9% NaCl. A series of lower concentrations (0.25, 0.50, 1.0, 2.5 and 5.0 mM) were prepared to form a concentration curve. A sample of each prepared concentration was warmed to 37° C. in an NMR sample tube prior to assay. Triplicate T1 and T2 values were obtained on each dilution.
# Separate linear regressions were determined using the reciprocal T1 and T2 mean values for the complex diluted in SWFI and 4% HSA. The relaxivity curves were generated by plotting the reciprocal T1 or T2 value against concentration. The following relaxation rates were determined for the complex of Example II: […]
# ICR mice = assay: acute intravenous toxicity (LD50) in ICR mice, 7-day observation; type: in vivo; conditions: for Deaths, Delayed (1-24 hr) / Deaths, Delayed (1-7 days) / Deaths, Immediate (0-1 hr) / Deaths, Total / Body Weight Change: 0.68 M; for Deaths, Total: deaths/animals
# Experimental: The acute intravenous toxicity of the compound of Example II was determined as follows: ICR mice, at 1 to 4 per dose level, received single intravenous injections of the test substance via a lateral tail vein at the rate of approximately 1 ml/minute. The test substances were at concentrations chosen to result in dose volumes of 5 to 75 ml/kg body weight. Dosing began at a volume of 10 ml/kg. Dose adjustments up or down were made to closely bracket the estimated LD50 with 4 animals per group (2 males and 2 females). Observations of the mice were recorded at times 0, 0.5, 1,2,4 and 24 hours and once daily thereafter for up to 7 days post injection. On the 7th day post injection, the mice were euthanized, weighed and necropsied. Abnormal tissues were noted. At this time a decision was made as to whether any histopathology was to be performed and whether or not the tissues should be retained. Necropsies were also performed on mice expiring after 24 hours post-injection, except for dead mice found on the weekends. The LD50 values, along with 95% CI were calculated using a modified Behrens-Reed-Meunch method. The results for the complex of Example II are reported below:
# Sex and Weight Range of Mice: Males(18.0-20.3 g) Females (19.0-21.7 g).
structure (smiles),measurement,setting,value
"COCCNC(=O)CN(CCN(CC(=O)[O-])CC(=O)NCCOC)CC(=O)[O-].[Mn+2] [Example X, {N,N'-Bis[N-(2-methoxyethyl)carbamoyl-methyl]-ethylenediamine-N,N'-diaceto}manganese(II)]",solubility in water,solubility in water,very soluble in water
"COCCNC(=O)CN(CCN(CCN(CC(=O)[O-])CC(=O)NCCOC)CC(=O)[O-])CC(=O)[O-].[Gd+3] [Example II, {N,N""-Bis[N-(2-methoxyethyl)-carbamoylmethyl]diethylenetriamine-N,N',N""-triaceto}gadolinium (III)]",T1 Relaxation Rate,[1]; 4% HSA/0.9% NaCl,4.40 mM⁻¹ s⁻¹
same,T2 Relaxation Rate,[1]; 4% HSA/0.9% NaCl,6.38 mM⁻¹ s⁻¹
same,T1 Relaxation Rate,[1]; H2O (SWFI),4.69 mM⁻¹ s⁻¹
same,T2 Relaxation Rate,[1]; H2O (SWFI),4.81 mM⁻¹ s⁻¹
same,"Deaths, Delayed (1-24 hr)","ICR mice; 6.8 mmol/kg i.v., ICR mice",0
same,"Deaths, Delayed (1-7 days)","ICR mice; 6.8 mmol/kg i.v., ICR mice",0
same,"Deaths, Immediate (0-1 hr)","ICR mice; 6.8 mmol/kg i.v., ICR mice",0
same,"Deaths, Total","ICR mice; 6.8 mmol/kg i.v., ICR mice",0/2
same,Body Weight Change,"ICR mice; 6.8 mmol/kg i.v., female ICR mice",+2.1 g
same,Body Weight Change,"ICR mice; 6.8 mmol/kg i.v., male ICR mice",-1.1 g
same,"Deaths, Delayed (1-24 hr)","ICR mice; 13.6 mmol/kg i.v., ICR mice",0
same,"Deaths, Delayed (1-7 days)","ICR mice; 13.6 mmol/kg i.v., ICR mice",0
same,"Deaths, Immediate (0-1 hr)","ICR mice; 13.6 mmol/kg i.v., ICR mice",0
same,"Deaths, Total","ICR mice; 13.6 mmol/kg i.v., ICR mice",0/2
same,Body Weight Change,"ICR mice; 13.6 mmol/kg i.v., female ICR mice",+1.4 g
same,Body Weight Change,"ICR mice; 13.6 mmol/kg i.v., male ICR mice",+1.6 g
same,"Deaths, Delayed (1-24 hr)","ICR mice; 20.4 mmol/kg i.v., ICR mice",0
same,"Deaths, Delayed (1-7 days)","ICR mice; 20.4 mmol/kg i.v., ICR mice",0
same,"Deaths, Immediate (0-1 hr)","ICR mice; 20.4 mmol/kg i.v., ICR mice",1
same,"Deaths, Total","ICR mice; 20.4 mmol/kg i.v., ICR mice",1/4
same,Body Weight Change,"ICR mice; 20.4 mmol/kg i.v., female ICR mice",-3.2 g
same,Body Weight Change,"ICR mice; 20.4 mmol/kg i.v., male ICR mice",-1.1 g
same,"Deaths, Delayed (1-24 hr)","ICR mice; 27.2 mmol/kg i.v., ICR mice",0
same,"Deaths, Immediate (0-1 hr)","ICR mice; 27.2 mmol/kg i.v., ICR mice",2
same,"Deaths, Total","ICR mice; 27.2 mmol/kg i.v., ICR mice",4/4
same,"Deaths, Immediate (0-1 hr)","ICR mice; 34.0 mmol/kg i.v., ICR mice",4
same,"Deaths, Total","ICR mice; 34.0 mmol/kg i.v., ICR mice",4/4
same,body weight gain of surviving mice,"ICR mice; 7-day post-injection period, i.v., ICR mice",failed to gain weight
same,95% Confidence Limits of LD50,"ICR mice; ICR mice, single i.v., 7 days",17.4 to 29.0 mmol/kg
same,LD50,"ICR mice; ICR mice, single i.v., 7 days post injection, modified Behrens-Reed-Meunch method",22.5 mmol/kg
same,gross organ abnormality at necropsy,ICR mice; one female dosed with 20.4 mmol/kg i.v.,"a ""pale"" colored liver"
same,"gross organ abnormality at necropsy, other mice","ICR mice; other mice at 20.4 mmol/kg or lower, i.v.",No other mice at 20.4 mmol/kg or lower showed similar abnormalities
same,order of i.v. toxicity,"ICR mice; preliminary tests, ICR mice",low order of i.v. toxicity

# Reference: US5130120A, “Paramagnetic DTPA and EDTA alkoxyalkylamide complexes as MRI agents” (Mallinckrodt Medical, Inc., priority 1988, dated 1992)
